In patent publication US20040224020A1, “Oral dosage forms with therapeutically active agents in controlled release cores and immediate release gelatin capsule coats” (priority 2002, published 2004):

Legend:
[1] = Viscosity of SAIB/solvent compositions, Cannon-Fenske viscometer; assay type: physicochemical; conditions: Cannon-Fenske viscometer of size 200 at 30° C.
[2] = Text: Where the controlled release core is in the form of a liquid, the amount and type of solvent used with SAIB should be optimized so as to obtain a liquid wherein the at least one therapeutically active agent is acceptably soluble.
In order to obtain a soluble liquid fill, the amounts of (i) SAIB, (ii) at least one biocompatible solvent, and (iii) at least one therapeutically active agent is optimized.

CCO [ethanol]
viscosity (centipoises value) [1]: 1.3 centipoises

CC(C)Cc1ccc(C(C)C(=O)O)cc1 (centres unmarked) [ibuprofen]
ethanol required to achieve solubility with SAIB [2]: approximately 15 % (by weight)
